The record followed here is BindingDB's records for patent US20250032625 (Merck Patent, 2025).

This test has as its target T1, Transcriptional enhancer factor TEF-1 [209-426] (UniProt P28347).
T1 construct: 209-426
Kind of test: Surface Plasmon Resonance (SPR) Assay. How it is done:
The kinetic and affinity parameters of protein-exemplary compound interactions were evaluated by SPR. hsTEAD1 (209-426) was immobilized onto a CM7 (Series S) sensor chip via the standard amine coupling procedure, at 15° C. Prior to immobilization, the carboxymethylated surface of the chip was activated with 400 mM 1-ethyl-3-(3-dimethylaminopropyl)-carbodiimide and 100 mM N-hydroxysuccinimide for 10 min. hsTEAD1 (209-426) was diluted to 11 μg/mL in 10 mM Bis-Tris at pH 6.5 and immobilized on the activated surface chip for 8 and 10 min, in order to reach 6000 to 9000 response units (RU). The remaining activated carboxymethylated groups were blocked with a 7 min injection of 1 M ethanolamine pH 8.5 after which the surface chip was washed with 0.5% (w/v) sodium dodecyl sulphate and 50 mM glycine. HBS-N, which consists of 10 mM HEPES pH 7.4 and 150 mM NaCl, was used as the background buffer during immobilization. Exemplary compounds were prediluted in DMSO, diluted 1:50 in running buffer (20 mM Tris pH 7.4, 150 mM NaCl, 1 mM DTT, 5 mM MgCl2, 0.1 mM EGTA, 0.05% CHAPS) and injected at ten different concentrations using two-fold dilution series, from 100 μM to 0.2 μM. A DMSO solvent correction (1%-3%) was performed to account for variations in bulk signal and to achieve high-quality data. […]

T1 sequence (P28347 209-426): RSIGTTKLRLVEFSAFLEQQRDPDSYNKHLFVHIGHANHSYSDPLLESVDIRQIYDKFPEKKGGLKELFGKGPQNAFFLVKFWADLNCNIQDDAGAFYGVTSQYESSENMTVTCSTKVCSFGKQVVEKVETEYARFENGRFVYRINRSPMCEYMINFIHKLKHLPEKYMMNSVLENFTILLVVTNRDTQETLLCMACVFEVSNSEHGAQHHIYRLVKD

Regarding `Cn1cc2c3cc(C(=O)NCCOCCOCCOCCOCCOc4cccc5c4C(=O)N(C4CCC(=O)NC4=O)C5=O)ccc3n(-c3ccc(C(F)(F)F)cc3)c2n1` (stereo unspecified) [US20250032625, Compound 16], the dissociation constant Kd was 3.01 µM.

The Kd is the constant that tells how readily two partners part at equilibrium.
